Values of other authors as cited in US9227958B2, “Amorphous and crystalline forms of aprepitant and processes for the preparation thereof” (Glenmark Pharmaceuticals Limited, priority 2006, dated 2016).

Columns and labels:
Details in all cases: stated in words, background
[1] = tested on: dopamine receptors
[2] = target: human substance P/neurokinin 1 (NK1) receptors (Homo sapiens, UniProt P25103)
[3] = target: T1, serotonin (5-HT3) receptors (Homo sapiens, UniProt P46098)
T1 sequence (P46098 24-478): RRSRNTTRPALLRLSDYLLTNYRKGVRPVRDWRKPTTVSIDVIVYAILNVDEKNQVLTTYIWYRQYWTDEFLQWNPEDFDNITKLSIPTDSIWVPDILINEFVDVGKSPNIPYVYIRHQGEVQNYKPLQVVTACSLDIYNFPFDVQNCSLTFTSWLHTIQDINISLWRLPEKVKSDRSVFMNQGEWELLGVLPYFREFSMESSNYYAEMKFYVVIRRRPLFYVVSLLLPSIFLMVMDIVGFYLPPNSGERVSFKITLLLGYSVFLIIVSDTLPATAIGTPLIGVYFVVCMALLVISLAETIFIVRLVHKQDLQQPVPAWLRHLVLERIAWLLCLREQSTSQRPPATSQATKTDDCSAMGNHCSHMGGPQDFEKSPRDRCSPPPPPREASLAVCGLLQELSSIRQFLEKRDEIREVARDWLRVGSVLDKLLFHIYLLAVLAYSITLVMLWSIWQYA

[4] = tested on: corticosteroid receptors

Chain of human substance P/neurokinin 1 (NK1) receptors (P25103 whole entry): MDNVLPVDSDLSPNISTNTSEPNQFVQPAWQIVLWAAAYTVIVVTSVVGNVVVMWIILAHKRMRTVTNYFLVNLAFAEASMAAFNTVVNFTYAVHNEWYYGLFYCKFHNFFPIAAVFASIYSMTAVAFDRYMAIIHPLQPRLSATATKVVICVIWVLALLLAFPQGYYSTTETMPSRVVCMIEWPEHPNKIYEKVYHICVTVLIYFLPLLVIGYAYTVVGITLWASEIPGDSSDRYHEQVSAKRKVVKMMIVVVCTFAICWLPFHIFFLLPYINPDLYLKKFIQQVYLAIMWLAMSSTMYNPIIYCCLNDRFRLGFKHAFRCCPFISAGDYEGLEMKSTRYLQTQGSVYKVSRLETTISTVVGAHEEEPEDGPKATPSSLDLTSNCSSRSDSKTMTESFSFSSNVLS

C[C@@H](O[C@H]1OCCN(Cc2n[nH]c(=O)[nH]2)[C@H]1c1ccc(F)cc1)c1cc(C(F)(F)F)cc(C(F)(F)F)c1 [Aprepitant]
affinity for dopamine receptors [1]: little or no affinity | affinity / antagonism at human substance P/neurokinin 1 (NK1) receptors [2]: selective high-affinity antagonist | affinity for serotonin (5-HT3) receptors [3]: little or no affinity | affinity for corticosteroid receptors [4]: little or no affinity
